Results taken from patent US10770169B2, “Method of providing a treatment to a subject based on a dynamic pathway map” (THE REGENTS OF THE UNIVERSITY OF CALIFORNIA, priority 2010, dated 2020).
Like-named read-outs stand apart in the source and are kept apart here.

Tested on: panel of 55 breast cancer cell lines
Experiment: Cell growth inhibition assay (Cell Titer Glo, 72 h, 9 doses; GI50, TGI, LC50)
Type: cell-based, human
Details: Homo sapiens, read-out: GI50 (converted)
[1] = HCC1954, HCC1954 cell line, censored GI50 values
[2] = MDA-MB-134-VI, MDAMB134VI cell line, censored GI50 values
[3] = MDA-MB-175-VII, MDAMB175VII cell line, censored GI50 values
[4] = SUM52PE, SUM52PE cell line, censored GI50 values
[5] = SUM149PT, SUM149PT cell line, censored GI50 values
[6] = SUM1315MO2, SUM1315MO2 cell line, censored GI50 values
[7] = ZR-75-1, ZR751 cell line, censored GI50 values

With `Cn1cnc2c(F)c(Nc3ccc(Br)cc3Cl)c(C(=O)NOCCO)cc21` [AZD6244] the GI50 (BT-20, cell line BT20) was 50.1 µM, the GI50 (BT-474, cell line BT474) was 50.1 µM and the GI50 (BT-483, cell line BT483) was 50.1 µM. It also gave a GI50 (CAMA-1, cell line CAMA1) of 50.1 µM, a GI50 (HCC38, cell line HCC38) of 50.1 µM and a GI50 (HCC1395, HCC1395 cell line, censored GI50 values) of 28.8 µM. The GI50 (HCC1395, cell line HCC1395) was 28.8 µM, the GI50 (HCC1419, HCC1419 cell line, censored GI50 values) was 17.8 µM and the GI50 (HCC1419, cell line HCC1419) was 17.8 µM. The GI50 (HCC1428, cell line HCC1428) was 50.1 µM, the GI50 (HCC1500, cell line HCC1500) was 50.1 µM and the GI50 (HCC1806, cell line HCC1806) was 50.1 µM. The GI50 (HCC1937, cell line HCC1937) was 50.1 µM, the GI50 [1] was 1.45 µM and the GI50 (HCC1954, cell line HCC1954) was 1.45 µM. For the same molecule, the GI50 (MCF7, cell line MCF7) was 50.1 µM, the GI50 [2] was 1.17 µM and the GI50 [3] was 2.57 µM. For the same molecule, the GI50 (MDA-MB-231, cell line MDAMB231) was 50.1 µM, the GI50 (MDA-MB-361, cell line MDAMB361) was 50.1 µM and the GI50 (MDA-MB-415, cell line MDAMB415) was 50.1 µM. The GI50 (MDA-MB-436, cell line MDAMB436) was 50.1 µM, the GI50 (MDA-MB-453, cell line MDAMB453) was 50.1 µM and the GI50 (MDA-MB-468, cell line MDAMB468) was 50.1 µM. The GI50 (SK-BR-3, cell line SKBR3) was 50.1 µM, the GI50 [4] was 9.77 µM and the GI50 (SUM52PE, cell line SUM52PE) was 9.77 µM. For the same molecule, the GI50 [5] was 0.525 µM, the GI50 (SUM149PT, cell line SUM149PT) was 0.525 µM and the GI50 (SUM185PE, cell line SUM185PE) was 50.1 µM. For the same molecule, the GI50 [6] was 7.59 µM, the GI50 (T47D, cell line T47D) was 50.1 µM and the GI50 [7] was 6.17 µM. It also gave a GI50 (ZR-75-1, cell line ZR751) of 6.17 µM, a GI50 (ZR-75B, cell line ZR75B) of 50.1 µM and a GI50 (cell line HCC2185) of 50.1 µM. It also gave a GI50 (cell line MDAMB134V) of 1.17 µM, a GI50 (cell line MDAMB175V) of 2.57 µM and a GI50 (cell line SUM1315MO) of 7.59 µM.

Molecule `Cn1c(=O)n(-c2ccc(C(C)(C)C#N)cc2)c2c3cc(-c4cnc5ccccc5c4)ccc3ncc21` [BEZ235] has a GI50 (AU565, AU565 cell line, censored GI50 values) of 0.257 µM, a GI50 (AU565, cell line AU565) of 0.257 µM and a GI50 (BT-20, BT20 cell line, censored GI50 values) of 3.8 µM. It also gave a GI50 (BT-20, cell line BT20) of 3.8 µM, a GI50 (BT-474, BT474 cell line, censored GI50 values) of 0.347 µM and a GI50 (BT-474, cell line BT474) of 0.347 µM. For the same molecule, the GI50 (BT-483, BT483 cell line, censored GI50 values) was 11.2 µM, the GI50 (BT-483, cell line BT483) was 11.2 µM and the GI50 (CAMA-1, CAMA1 cell line, censored GI50 values) was 16.6 µM. For the same molecule, the GI50 (CAMA-1, cell line CAMA1) was 16.6 µM, the GI50 (HCC38, HCC38 cell line, censored GI50 values) was 0.49 µM and the GI50 (HCC38, cell line HCC38) was 0.49 µM. For the same molecule, the GI50 (HCC70, HCC70 cell line, censored GI50 values) was 0.158 µM, the GI50 (HCC70, cell line HCC70) was 0.158 µM and the GI50 (HCC1187, cell line HCC1187) was 33.1 µM. It also gave a GI50 (HCC1428, HCC1428 cell line, censored GI50 values) of 17 µM, a GI50 (HCC1428, cell line HCC1428) of 17 µM and a GI50 [1] of 0.0525 µM. For the same molecule, the GI50 (HCC1954, cell line HCC1954) was 0.0525 µM, the GI50 (HCC2185 cell line, censored GI50 values) was 0.263 µM and the GI50 (HCC3153 cell line, censored GI50 values) was 0.646 µM. The GI50 (MCF7, MCF7 cell line, censored GI50 values) was 0.589 µM, the GI50 (MCF7, cell line MCF7) was 0.589 µM and the GI50 [2] was 1 µM. For the same molecule, the GI50 [3] was 1.15 µM, the GI50 (MDA-MB-361, MDAMB361 cell line, censored GI50 values) was 0.813 µM and the GI50 (MDA-MB-361, cell line MDAMB361) was 0.813 µM. It also gave a GI50 (MDA-MB-415, MDAMB415 cell line, censored GI50 values) of 0.263 µM, a GI50 (MDA-MB-415, cell line MDAMB415) of 0.263 µM and a GI50 (MDA-MB-453, MDAMB453 cell line, censored GI50 values) of 0.132 µM. For the same molecule, the GI50 (MDA-MB-453, cell line MDAMB453) was 0.132 µM, the GI50 (MDA-MB-468, cell line MDAMB468) was 33.1 µM and the GI50 (SK-BR-3, SKBR3 cell line, censored GI50 values) was 0.589 µM. It also gave a GI50 (SK-BR-3, cell line SKBR3) of 0.589 µM, a GI50 [4] of 17 µM and a GI50 (SUM52PE, cell line SUM52PE) of 17 µM. It also gave a GI50 [5] of 0.269 µM, a GI50 (SUM149PT, cell line SUM149PT) of 0.269 µM and a GI50 (SUM185PE, SUM185PE cell line, censored GI50 values) of 15.1 µM. The GI50 (SUM185PE, cell line SUM185PE) was 15.1 µM, the GI50 [6] was 0.224 µM and the GI50 (SUM-159-PT, SUM159PT cell line, censored GI50 values) was 0.0363 µM. It also gave a GI50 (SUM-159-PT, cell line SUM159PT) of 0.0363 µM, a GI50 (T47D, T47D cell line, censored GI50 values) of 0.282 µM and a GI50 (T47D, cell line T47D) of 0.282 µM. For the same molecule, the GI50 (UACC-812, UACC812 cell line, censored GI50 values) was 16.6 µM, the GI50 (UACC-812, cell line UACC812) was 16.6 µM and the GI50 [7] was 16.6 µM. It also gave a GI50 (ZR-75-1, cell line ZR751) of 16.6 µM, a GI50 (ZR-75B, ZR75B cell line, censored GI50 values) of 0.141 µM and a GI50 (ZR-75B, cell line ZR75B) of 0.141 µM. The GI50 (cell line HCC2185) was 0.263 µM, the GI50 (cell line HCC3153) was 0.646 µM and the GI50 (cell line MDAMB134V) was 1 µM. For the same molecule, the GI50 (cell line MDAMB175V) was 1.15 µM and the GI50 (cell line SUM1315MO) was 0.224 µM.
